Source: publication PMC10914731, “Homo-BacPROTAC-induced degradation of ClpC1 as a strategy against drug-resistant mycobacteria” (Nature Communications, 2024)
Converted amounts (≈) assume the structure as drawn. “And” between values parts separate entries of the source, which are not always exact repeats. Equal values may be shown once. Read-outs that look alike come from different tables or passages of the source. *1 amine or outer side, *2 acyl side, *3 side chain or, on linkers, in order; H or OH if unused. Where a SMILES comes first, the peptide text is derived from it. [ ]: non-standard residue; d: D form. X1 = C#CCn1cc(C[C@H](N[*:1])C(=O)[*:2])c2ccccc21; NMeLeu(5-OH,4R) = CN[C@@H](C[C@@H](C)CO)C(=O)O; Phe(βR-OMe) = CO[C@H](c1ccccc1)[C@H](N)C(=O)O; NMeL = CN[C@@H](CC(C)C)C(=O)O

What was measured:
[1] = test system: Msm 700084; experiment: microbe, parasite or virus in culture; assay type: cell-based
[2] = target: His6-tagged ClpC1-NTD substrate, M. smegmatis ClpC1P1P2 (UniProt A0R574+P9WPC9); experiment: biochemical; assay type: biochemical; details: for DC50: Msm; for % Response / ClpC1-NTD peak area: Figure 4a source data, well replicates
His6-tagged ClpC1-NTD substrate, M. smegmatis ClpC1P1P2, sequence (P9WPC9 1-156, looked up, natural form): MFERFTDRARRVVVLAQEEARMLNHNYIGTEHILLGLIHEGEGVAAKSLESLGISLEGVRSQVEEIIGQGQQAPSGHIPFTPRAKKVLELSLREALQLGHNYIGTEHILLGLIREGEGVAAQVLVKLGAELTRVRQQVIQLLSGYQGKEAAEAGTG
His6-tagged ClpC1-NTD substrate, M. smegmatis ClpC1P1P2, sequence (A0R574 whole entry): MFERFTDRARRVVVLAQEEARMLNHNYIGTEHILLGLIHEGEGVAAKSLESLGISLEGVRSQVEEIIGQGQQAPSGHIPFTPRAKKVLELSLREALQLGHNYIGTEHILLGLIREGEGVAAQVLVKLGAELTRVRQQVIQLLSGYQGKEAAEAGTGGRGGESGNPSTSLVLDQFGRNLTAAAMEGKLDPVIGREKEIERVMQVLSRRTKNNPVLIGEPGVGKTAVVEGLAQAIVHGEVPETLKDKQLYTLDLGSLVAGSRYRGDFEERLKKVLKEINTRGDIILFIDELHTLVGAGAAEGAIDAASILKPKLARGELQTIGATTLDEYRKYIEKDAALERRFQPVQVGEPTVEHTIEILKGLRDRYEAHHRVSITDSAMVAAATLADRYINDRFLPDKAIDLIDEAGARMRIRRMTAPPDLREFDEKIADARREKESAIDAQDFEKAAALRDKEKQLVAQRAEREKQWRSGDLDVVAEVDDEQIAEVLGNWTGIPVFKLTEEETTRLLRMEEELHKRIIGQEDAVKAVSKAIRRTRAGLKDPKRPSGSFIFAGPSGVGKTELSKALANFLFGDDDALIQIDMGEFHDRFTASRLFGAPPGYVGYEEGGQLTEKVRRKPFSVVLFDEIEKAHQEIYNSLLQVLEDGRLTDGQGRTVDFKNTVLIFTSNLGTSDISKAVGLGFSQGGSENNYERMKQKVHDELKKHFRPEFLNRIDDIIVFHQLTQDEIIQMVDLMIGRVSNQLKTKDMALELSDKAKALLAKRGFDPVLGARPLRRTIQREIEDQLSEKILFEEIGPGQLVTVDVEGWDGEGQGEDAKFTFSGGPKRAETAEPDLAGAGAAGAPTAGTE

[3] = test system: Salmonella typhimurium; experiment: MIC ESKAPES panel, Salmonella typhimurium; assay type: cell-based
Method: (§1) Minimum inhibitory concentration (MIC) against ESKAPES panel of Gram positive and Gram negative pathogens (Enterococcus faecium, Staphylococcus aureus, Klebsiella pneumoniae, Acinetobacter baumannii, Pseudomonas aeruginosa, Enterobacter cloacae and Salmonella typhimurium [ESKAPES panel]) were determined at the FNDR by the standard broth dilution method [CLSI, M100]. […] Mueller Hinton broth (MHB) medium was used to grow ESKAPES panel strains. The individual cultures were added as 200 μL (inoculum of 3–7 × 10^5 cfu/ml) to the respective assay plates in each well to all columns, except the media control (200 μL of medium). […] The assay plates were incubated at 37 °C, and the results were noted on the 2nd day as turbidometric readout. The clear wells indicated inhibition of growth, while the turbid wells indicated uninhibited growth.

[4] = test system: Enterobacter cloacae; experiment: MIC ESKAPES panel, Enterobacter cloacae; assay type: cell-based
Method: as §1

[5] = assay type: in vitro ADME, Rat
Summary of the method: (§2)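 Compound at 1 µmol/l incubated with 0.5 mg/ml liver microsomes in 100 mM Tris-HCl pH 7.5, 6.5 mM MgCl2, 1 mM NADPH, 37 °C; acetonitrile-quenched at multiple time points, measured by HPLC-MS/MS. First-order half-lives converted to clearance as %Qh via well-stirred liver model.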

[6] = test system: Mycobacterium intracellulare; experiment: microbe, parasite or virus in culture; assay type: cell-based
[7] = test system: replicating Mtb H37Rv cells; experiment: Resazurin growth assay, replicating Mtb H37Rv (Supplementary Fig. 2); assay type: cell-based, Mycobacterium tuberculosis; details: three replicate columns
[8] = test system: Mycobacterium fortuitum; experiment: microbe, parasite or virus in culture; assay type: cell-based
[9] = test system: Acinetobacter baumannii; experiment: MIC ESKAPES panel, Acinetobacter baumannii; assay type: cell-based
Method: as §1

[10] = test system: Mycobacterium avium; experiment: microbe, parasite or virus in culture; assay type: cell-based
[11] = Microsomal stability, human; assay type: in vitro ADME
Summary of the method: as §2

[12] = assay type: in vitro ADME, Rat; details: rat, pH 7.4
[13] = Gram-Negative Bacteria, replicates 1-3
[14] = Experiment 2, three replicate columns

## C#CCn1cc(C[C@@H]2NC(=O)[C@H](C(C)C)NC(=O)[C@H](CC(C)C)N(C)C(=O)[C@H](C(C)C)NC(=O)[C@H]([C@H](OC)c3ccccc3)NC(=O)[C@H](C)NC(=O)[C@H](C[C@@H](C)CO)N(C)C2=O)c2ccccc21 [Compound 5] (cyclo(A[Phe(βR-OMe)]V[NMeL]V[X1][NMeLeu(5-OH,4R)]))
[1]; Mycolicibacterium smegmatis, 700084, single determinations, read-out: Msm 700084 MIC
  MIC: 6.25 µM (≈ 5.88 µg/mL)
[1]; Mycolicibacterium smegmatis, 700084, read-out: MIC Msm 700084
  MIC: 6.3 µM (≈ 5.93 µg/mL)
[2]; Measurement 1-6, read-out: DC50, single measurements
  DC50: > 100 µM
[2]; mean of the measurements, read-out: DC50, Mean
  DC50: > 100 µM
[2]; cell-free, result in words
  degradation of the His6-tagged ClpC1-NTD substrate: did not cause any degradation
[2]; conc. 0.4 µM
  % Response: 116.842% and 113.028% and 105.03% and 119.052% and 111.716% and 114.137% and 123.793% and 118.108% and 117.25%
  ClpC1-NTD peak area: 640826 and 655003 and 1857813 and 1613203 and 1512289 and 674239 and 595770 and 768891 and 644662
[2]; conc. 33.3 µM
  % Response: 90.9541% and 97.3128% and 94.2061% and 106.414% and 99.6024% and 104.896% and 117.254% and 102.794% and 105.872%
  ClpC1-NTD peak area: 584244 and 637952 and 1853168 and 1510772 and 1477984 and 564418 and 575020 and 543552 and 642219
[2]; conc. 100.0 µM
  % Response: 105.654% and 87.8451% and 96.6012% and 102.875% and 103.779% and 107.689% and 115.982% and 114.344% and 115.781%
  ClpC1-NTD peak area: 756908 and 694227 and 2586172 and 1761383 and 2099655 and 509578 and 446745 and 481433 and 842128
[3]; [13]
  MIC: >50 µM
[3]; Salmonella enterica, TYPHIMURIUM, Gram negative, n = 3 well replicates
  MIC: > 50 µM
[3]; Salmonella enterica, TYPHIMURIUM, Gram-Negative Bacteria, replicates 1-3
  MIC: > 47 µg/mL
[4]; Enterobacter cloacae, Gram negative, n = 3 well replicates
  MIC: > 50 µM
[4]; Enterobacter cloacae, Gram-Negative Bacteria, replicates 1-3
  MIC: > 47 µg/mL
[4]; [13]
  MIC: >50 µM
[5]; Rat
  Microsomal Stability Rat QH: >87.900%
[5]; clearance in microsomes
  Microsomal Stability Rat: > 88 %Qh
[6]; Experiment 1, read-out: MIC Mycobacterium intracellulare
  MIC: 6.3 µM
[6]; [14]
  MIC (µg/ml) Mycobacterium intracellulare: 5.88 µg/mL (≈ 6.25 µM)
[6]; Experiment 2, three replicate columns, read-out: MIC (µM) Mycobacterium intracellulare
  MIC: 6.25 µM
[6]; Mycobacterium intracellulare, Experiment 1, read-out: MIC Mycobacterium intracellulare
  MIC: 5.9 µg/mL
[6]; Mycobacterium intracellulare, Experiment 2, three replicate columns, read-out: MIC (µM) Mycobacterium intracellulare
  MIC: 6.25 µM
[6]; Mycobacterium intracellulare, Experiment 2, three replicate columns, read-out: MIC (µg/ml) Mycobacterium intracellulare
  MIC: 5.88 µg/mL
[6]; Mycobacterium intracellulare, mean ± SD, read-out: MIC Mycobacterium intracellulare
  MIC: 6.3 µM
[7]; Conc. 0.0488281 µM
  Supplementary Figure 2 dose-response value, replicating H37Rv cells: 98.0652 and 83.9808 and 80.51
[7]; Conc. 0.0976562 µM
  Supplementary Figure 2 dose-response value, replicating H37Rv cells: 93.0506 and 83.7138 and 106.369
[7]; Conc. 0.195312 µM
  Supplementary Figure 2 dose-response value, replicating H37Rv cells: 80.9008 and 79.6239 and 83.1102
[7]; Conc. 0.390625 µM
  Supplementary Figure 2 dose-response value, replicating H37Rv cells: 100.805 and 94.8498 and 103.432
[7]; Conc. 0.78125 µM
  Supplementary Figure 2 dose-response value, replicating H37Rv cells: 90.0247 and 88.21 and 77.7086
[7]; Conc. 1.5625 µM
  Supplementary Figure 2 dose-response value, replicating H37Rv cells: 89.1967 and 85.691 and 102.875
[7]; Conc. 3.125 µM
  Supplementary Figure 2 dose-response value, replicating H37Rv cells: 81.2645 and 83.4662 and 77.6892
[7]; Conc. 6.25 µM
  Supplementary Figure 2 dose-response value, replicating H37Rv cells: 79.2563 and 81.2993 and 97.3301
[7]; Conc. 25 µM
  Supplementary Figure 2 dose-response value, replicating H37Rv cells: 23.3248 and 18.2173 and 22.7212
[7]; Conc. 50 µM
  Supplementary Figure 2 dose-response value, replicating H37Rv cells: 9.562 and 6.199 and 9.0701
[7]; Conc. 100 µM
  Supplementary Figure 2 dose-response value, replicating H37Rv cells: 10.3547 and 8.316 and 5.8624
[8]; Experiment 1, read-out: MIC Mycobacterium fortuitum
  MIC: 6.3 µM
[8]; [14]
  MIC (µg/ml) Mycobacterium fortuitum: 5.88 µg/mL (≈ 6.25 µM)
[8]; Experiment 2, three replicate columns, read-out: MIC (µM) Mycobacterium fortuitum
  MIC: 6.25 µM
[8]; Mycolicibacterium fortuitum, Experiment 1, read-out: MIC Mycobacterium fortuitum
  MIC: 5.9 µg/mL
[8]; Mycolicibacterium fortuitum, Experiment 2, three replicate columns, read-out: MIC (µM) Mycobacterium fortuitum
  MIC: 6.25 µM
[8]; Mycolicibacterium fortuitum, Experiment 2, three replicate columns, read-out: MIC (µg/ml) Mycobacterium fortuitum
  MIC: 5.88 µg/mL
[8]; Mycolicibacterium fortuitum, mean ± SD, read-out: MIC Mycobacterium fortuitum
  MIC: 6.3 µM
[9]; Gram negative, n = 3 well replicates, read-out: MIC Acinetobacter baumanii
  MIC: > 50 µM
[9]; Gram-Negative Bacteria, replicates 1-3, read-out: MIC Acinetobacter baumannii
  MIC: > 50 µM and > 47 µg/mL
[10]; Experiment 1, read-out: MIC Mycobacterium avium
  MIC: 6.3 µM
[10]; [14]
  MIC (µg/ml) Mycobacterium avium: 5.88 µg/mL (≈ 6.25 µM)
[10]; Experiment 2, three replicate columns, read-out: MIC (µM) Mycobacterium avium
  MIC: 6.25 µM
[10]; Mycobacterium avium, Experiment 1, read-out: MIC Mycobacterium avium
  MIC: 5.9 µg/mL
[10]; Mycobacterium avium, Experiment 2, three replicate columns, read-out: MIC (µM) Mycobacterium avium
  MIC: 6.25 µM
[10]; Mycobacterium avium, Experiment 2, three replicate columns, read-out: MIC (µg/ml) Mycobacterium avium
  MIC: 5.88 µg/mL
[10]; Mycobacterium avium, mean ± SD, read-out: MIC Mycobacterium avium
  MIC: 6.3 µM
[11]; Human
  Microsomal Stability Human QH: >88.400%
[11]; clearance in microsomes
  Microsomal Stability Human: > 88 %Qh
[12]
  Hepatocyte Rat: 51 %Qh
  Hepatocyte Stability Rat QH: 51.066%
